Source: US20240041042A1, “1-(PYRIDYL)-5-AZINYLPYRAZOLE DERIVATIVES, AND THEIR USE FOR CONTROL OF UNDESIRED PLANT GROWTH” (Bayer Aktiengesellschaft, priority 2020, published 2024)
Where two headings read alike, the source gives them in different places.

Key:
Format in all cases: in vivo
[1] = test system: Abutilon theophrasti (ABUTH); assay: Post-emergence herbicidal action against ABUTH; details: visual rating about 3 weeks after treatment vs untreated controls (100% = plants have died, 0% = like control plants)
Procedure, shortened: (§1)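 Post-emergence greenhouse spray, one-leaf stage, 600 l/ha water plus 0.5% additive; WP or EC formulations; application rates 320 g/ha or lower. Visual % damage vs untreated controls at ~3 weeks.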

[2] = test system: Alopecurus myosuroides (ALOMY); assay: Post-emergence herbicidal action against ALOMY; details: visual rating about 3 weeks after treatment vs untreated controls (100% = plants have died, 0% = like control plants)
Procedure, shortened: as §1

[3] = test system: Amaranthus retroflexus (AMARE); assay: Post-emergence herbicidal action against AMARE
Procedure, shortened: as §1

Avena fatua (AVEFA) [4] = assay: Post-emergence herbicidal action against AVEFA; details: 320 g/ha, visual rating about 3 weeks after treatment
Procedure, shortened: as §1

[5] = test system: Digitaria sanguinalis (DIGSA); assay: Post-emergence herbicidal action against DIGSA; details: visual rating about 3 weeks after treatment
Procedure, shortened: as §1

[6] = test system: Echinochloa crus-galli (ECHCG); assay: Post-emergence herbicidal action against ECHCG
Procedure, shortened: as §1

Lolium rigidum (LOLRI) [7] = assay: Post-emergence herbicidal action against LOLRI
Procedure, shortened: as §1

[8] = test system: Matricaria inodora (MATIN); assay: Post-emergence herbicidal action against MATIN
Procedure, shortened: as §1

[9] = test system: Pharbitis purpurea (PHBPU); assay: Post-emergence herbicidal action against PHBPU
Procedure, shortened: as §1

[10] = test system: Polygonum convolvulus (POLCO); assay: Post-emergence herbicidal action against POLCO
Procedure, shortened: as §1

Setaria viridis (SETVI) [11] = assay: Post-emergence herbicidal action against SETVI
Procedure, shortened: as §1

[12] = test system: Verconica persica (VERPE); assay: Post-emergence herbicidal action against VERPE
Procedure, shortened: as §1

Viola tricolor (VIOTR) [13] = assay: Post-emergence herbicidal action against VIOTR
Procedure, shortened: as §1

Oryza sativa (ORYSA) = details: crop plant compatibility, 20 g/ha, effect vs untreated controls
Procedure, shortened: (§2)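 Effects were read visually as % versus untreated controls (0% = no effect, 100% = death) about 3 weeks post-treatment. Application was a post-emergence spray at the one-leaf stage of WP/EC formulations with 0.5% additive at 600 l/ha. Different dosages are denoted a, b and c.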

[14] = test system: Triticum aestivum (TRZAS); details: crop plant compatibility, 20 g/ha, effect vs untreated controls
Procedure, shortened: as §2

Zea mays (ZEAMX) [15] = details: for Post-emergence action against ZEAMX in % (crop plant compatibility): 20 g/ha, effect in comparison to untreated controls; for Post-emergence action against ZEAMX in %: crop plant compatibility, effect vs untreated controls
Procedure, shortened: as §2

[16] = test system: Alopecurus myosuroides (ALOMY); assay: Pre-emergence herbicidal action against ALOMY; details: scored visually after about 3 weeks, 100% = plants have died
Procedure, shortened: (§3)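 Pre-emergence soil-surface spray of compound, formulated as wettable powder or emulsion concentrate, in aqueous suspension or emulsion with 0.5% additive (600 l/ha; rate 320 g/ha or less). Activity rated visually after roughly 3 weeks in the greenhouse as a percentage of untreated controls, 0% meaning no difference.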

[17] = test system: Amaranthus retroflexus (AMARE); assay: Pre-emergence herbicidal action against AMARE; details: visual scoring after about 3 weeks vs untreated controls
Procedure, shortened: as §3

Avena fatua (AVEFA) [18] = assay: Pre-emergence herbicidal action against AVEFA; details: 320 g/ha, visual scoring after about 3 weeks vs untreated controls
Procedure, shortened: as §3

[19] = test system: Echinochloa crus-galli (ECHCG); assay: Pre-emergence herbicidal action against ECHCG; details: dosage 320 g/ha
Procedure, shortened: as §3

Lolium rigidum (LOLRI) [20] = assay: Pre-emergence herbicidal action against LOLRI; details: dosage 320 g/ha
Procedure, shortened: as §3

[21] = test system: Matricaria inodora (MATIN); assay: Pre-emergence herbicidal action against MATIN; details: dosage 320 g/ha
Procedure, shortened: as §3

[22] = test system: Polygonum convolvulus (POLCO); assay: Pre-emergence herbicidal action against POLCO; details: dosage 320 g/ha
Procedure, shortened: as §3

Setaria viridis (SETVI) [23] = assay: Pre-emergence herbicidal action against SETVI
Procedure, shortened: as §3

[24] = test system: Verconica persica (VERPE); assay: Pre-emergence herbicidal action against VERPE; details: dosage 320 g/ha
Procedure, shortened: as §3

Viola tricolor (VIOTR) [25] = assay: Pre-emergence herbicidal action against VIOTR
Procedure, shortened: as §3

Zea mays (ZEAMX) [26] = details: pre-emergence, 80 g/ha, crop plant compatibility, in comparison to untreated controls
Description: Seeds of monocotyledonous and dicotyledonous weed plants and crop plants are placed in plastic or organic planting pots and covered with soil. The compounds of the invention, formulated in the form of wettable powders (WP) or as emulsion concentrates (EC), are then applied to the surface of the covering soil as aqueous suspension or emulsion with addition of 0.5% additive at a water application rate equivalent to 600 l/ha. After the treatment, the pots are placed in a greenhouse and kept under good growth conditions for the trial plants. After about 3 weeks, the effect of the preparations is scored visually in comparison with untreated controls as percentages. For example, 100% activity=the plants have died, 0% activity=like control plants.
The observed effects on selected crop plants are reported here in comparison to the untreated controls (values in %). The appendices “a” “b” and “c” give differentiation by dosage used with otherwise the same crop plants tested.

[27] = 80 g/ha, visual rating about 3 weeks after treatment vs untreated controls (100% = plants have died, 0% = like control plants)
[28] = 320 g/ha, visual rating about 3 weeks after treatment

SMILES | Post-emergence action against ABUTH in % ([1]; 80 g/ha) | Post-emergence action against ABUTH in % ([1]; 320 g/ha) | Post-emergence action against ALOMY in % ([2]; 80 g/ha) | Post-emergence action against ALOMY in % ([2]; 320 g/ha) | Post-emergence action against AMARE in % [3, 27] | Post-emergence action against AMARE in % [3, 28] | Post-emergence action against AVEFA in % (Avena fatua (AVEFA) [4]) | Post-emergence action against DIGSA in % ([5]; 320 g/ha) | Post-emergence action against ECHCG in % ([6]; dosage 80 g/ha) | Post-emergence action against ECHCG in % ([6]; dosage 320 g/ha) | Post-emergence action against LOLRI in % (Lolium rigidum (LOLRI) [7]; dosage 320 g/ha) | Post-emergence action against MATIN in % ([8]; dosage 320 g/ha) | Post-emergence action against PHBPU in % ([9]; dosage 320 g/ha) | Post-emergence action against POLCO in % ([10]; dosage 320 g/ha) | Post-emergence action against SETVI in % (Setaria viridis (SETVI) [11]; dosage 80 g/ha) | Post-emergence action against VERPE in % ([12]; 320 g/ha, VERPE) | Post-emergence action against VERPE in % ([12]; dosage 80 g/ha) | Post-emergence action against VIOTR in % (Viola tricolor (VIOTR) [13]; 80 g/ha) | Post-emergence action against VIOTR in % (Viola tricolor (VIOTR) [13]; 320 g/ha) | Post-emergence action against ORYSA in % (Oryza sativa (ORYSA)) | other results
CCOC(=O)COc1nn(-c2ncccc2C)c(-c2cncc(F)c2)c1Cl [Example I-181] | 80% | 80% | 80% | 90% | 80% | 90% | 90% | 90% | 90% | 100% | 80% | 80% | 100% | 80% | 80% | 90% | 90% | 90% | 90% | 0% | Post-emergence action against DIGSA in % ([5]; 80 g/ha): 90%; Post-emergence action against MATIN in % ([8]; dosage 80 g/ha): 80%; Post-emergence action against PHBPU in % ([9]; dosage 80 g/ha): 90%; Post-emergence action against POLCO in % ([10]; dosage 80 g/ha): 80%; Post-emergence action against SETVI in % (Setaria viridis (SETVI) [11]; dosage 320 g/ha): 90%; Post-emergence action against TRZAS in % [14]: 20%; Post-emergence action against ZEAMX in % (crop plant compatibility) (Zea mays (ZEAMX) [15]): 20%
CCOC(=O)[C@@H](C)Oc1nn(-c2ncccc2F)c(-c2cncc(F)c2)c1Cl [Example I-145] | 90% | 90% | 80% | 90% | 80% | 80% | 90% | 90% | 90% | 90% | 90% | 90% | 90% | 90% | 90% | 90% | 90% | 90% | 90% | 0% | Post-emergence action against LOLRI in % (Lolium rigidum (LOLRI) [7]; dosage 80 g/ha): 90%; Post-emergence action against MATIN in % ([8]; dosage 80 g/ha): 80%; Post-emergence action against PHBPU in % ([9]; dosage 80 g/ha): 90%; Post-emergence action against POLCO in % ([10]; dosage 80 g/ha): 90%; Post-emergence action against SETVI in % (Setaria viridis (SETVI) [11]; dosage 320 g/ha): 90%; Post-emergence action against TRZAS in % [14]: 20%
CC(C)N(C)S(=O)(=O)NC(=O)COc1nn(-c2ncccc2F)c(-c2ccc(F)nc2)c1Br [Example I-53] |  |  | 90% |  | 90% |  |  |  | 80% |  |  |  |  |  | 80% |  | 80% |  |  | 10% | Pre-emergence action against ALOMY ([16]; 80 g/ha): 80%; Pre-emergence action against ALOMY ([16]; 320 g/ha): 100%; Pre-emergence action against AMARE in % ([17]; 80 g/ha): 90%; Pre-emergence action against AMARE in % ([17]; 320 g/ha): 100%; Pre-emergence action against AVEFA in % (Avena fatua (AVEFA) [18]): 100%; Pre-emergence action against ECHCG in % [19]: 80%; Pre-emergence action against LOLRI in % (Lolium rigidum (LOLRI) [20]): 100%; Pre-emergence action against MATIN in % [21]: 90%; Pre-emergence action against POLCO in % [22]: 90%; Pre-emergence action against SETVI in % (Setaria viridis (SETVI) [23]; dosage 80 g/ha): 90%; Pre-emergence action against SETVI in % (Setaria viridis (SETVI) [23]; dosage 320 g/ha): 100%; Pre-emergence action against VERPE in % [24]: 100%; Pre-emergence action against VIOTR in % (Viola tricolor (VIOTR) [25]; 320 g/ha, Viola tricolor): 100%; Pre-emergence action against VIOTR in % (Viola tricolor (VIOTR) [25]; dosage 80 g/ha): 90%; Pre-emergence action against ZEAMX in % (Zea mays (ZEAMX) [26]): 20%; Post-emergence action against ZEAMX in % (crop plant compatibility) (Zea mays (ZEAMX) [15]): 10%
COC(=O)COc1nn(-c2ncccc2F)c(-c2ccnc(F)c2)c1Br [Example I-130] | 80% | 90% |  | 90% | 80% | 90% | 90% | 90% |  | 90% | 90% | 80% | 80% | 80% |  | 80% | 80% | 90% | 90% | 0% | Post-emergence action against DIGSA in % ([5]; 80 g/ha): 80%; Post-emergence action against TRZAS in % [14]: 20%; Post-emergence action against ZEAMX in % (crop plant compatibility) (Zea mays (ZEAMX) [15]): 0%; Post-emergence action against ZEAMX in % (Zea mays (ZEAMX) [15]; 80 g/ha): 0%; Post-emergence action against ZEAMX in % (Zea mays (ZEAMX) [15]; 320 g/ha): 20%
